Measured values taken from patent publication US9048628B2, “Solid-state dye laser medium and process for production thereof” (KYUSHU UNIVERSITY, NATIONAL UNIVERSITY CORPORATION, priority 2011, dated 2015).

Columns and labels:
[1] = Maximum concentration soluble in polydimethylsiloxane (PDMS) when silicone oil was used; format: physicochemical; conditions: silicone oil used as in Example 2
Excerpt: A DFB laser was produced in the same manner as in Example 1, except that a silicone oil (KF-1065, produced by Shin-Etsu Chemical Co., Ltd.) was used instead of toluene, and that the step of removing toluene was not performed.
(§1) Using the dyes indicated below, maximum concentrations at which they were soluble in polydimethylsiloxane (PDMS) were investigated in the same manners as in Examples 1 and 2.

[2] = Maximum concentration soluble in polydimethylsiloxane (PDMS) when toluene was used; format: physicochemical
Description: Pyrromethene 597 (PM597, produced by Exciton) as a dye was dissolved in toluene to prepare a solution of a saturated concentration (100 to 130 mmol/L). This dye solution was mixed at a mixing ratio of […] (volume ratio) with a dimethylsiloxane oligomer (SIM-360, produced by Shin-Etsu Chemical Co., Ltd.) being a polydimethylsiloxane precursor, and the mixture was stirred for 2 days for thorough uniform dispersing. Then, the dispersion was further heated at 72° C. to evaporate toluene, thus adjusting the system to a final dye concentration of 3 mmol/L.
as §1

[3] = dye unchanged, without silicone oil

| SMILES | Behavior of dissolution in PDMS when silicone oil was used: State [1] | Highest concentration dissolving in dimethylsiloxane [2, 3] [mmol/L] | Behavior of dissolution in PDMS when toluene was used: State ([2]; toluene used as in Example 1) | Dissolution in dimethylsiloxane (in words) [2, 3] |
| --- | --- | --- | --- | --- |
| CC1=C(S(=O)(=O)[O-])C(C)=[N+]2C1=C(C)c1c(C)c(S(=O)(=O)[O-])c(C)n1[B-]2(F)F.[Na+].[Na+] [PM556] | dispersed |  |  |  |
| CCC1=C(C)C2=C(C)c3c(C)c(CC)c(C)n3[B-](F)(F)[N+]2=C1C [PM567] | dissolved |  |  |  |
| CCCCC1=C(C)C2=C(C)c3c(C)c(CCCC)c(C)n3[B-](F)(F)[N+]2=C1C [PM580] | lumpy→ |  |  |  |
| CC1=C(C(C)(C)C)C(C)=[N+]2C1=C(C)c1c(C)c(C(C)(C)C)c(C)n1[B-]2(F)F [PM597] | dissolved | 3 | dissolved |  |
| CCC1=C(C)C2=C(COC(C)=O)c3c(C)c(CC)c(C)n3[B-](F)(F)[N+]2=C1C [PM605] | dissolved |  |  |  |
| CC1=C(C)C(C)=[N+]2C1=C(C#N)c1c(C)c(C)c(C)n1[B-]2(F)F [PM650] | dissolved |  |  | poses difficulty in dissolving to a lower limit concentration at which laser oscillation becomes possible |
| CCN=c1cc2oc3cc(NCC)c(C)cc3c(-c3ccccc3C(=O)OCC)c-2cc1C.Cl [Rh6G] | lumpy→ |  |  |  |
